One assay concerns MCP-1 Induction by CRP. Briefly: Modulation of CRP effects by statin, aspirin and PPAR activators: MCP-1 secretion in HUVEC, sandwich ELISA. The class given is cell-based, human. The note with it: for effect on induction of MCP-1 by CRP (in words): test substance 10 μM. As to the method: Experiments were performed in HUVEC. […] After 2 hours, the cells were incubated with C-reactive protein or with IL-1β 10 ng/mL for 24 hours. […] Secretion of MCP-1 and RANTES were assessed by sandwich ELISA (Colorimetric Quantikine, by R and D Systems). All determinations were performed in duplicate. Data were expressed as mean±SD of 5-6 separate experiments. Cell viability was assessed by staining with trypan blue.
For orientation: ELISA stands for enzyme-linked immunosorbent assay.

Assay [1] has as its system human umbilical vein endothelial cells (HUVEC). Briefly: Adhesion molecule expression in HUVEC by FACS, in the presence of serum. The class given is cell-based. Particulars: 24-hour incubation, HUVEC with human serum. For orientation: A flow cytometer gives signals particle by particle.
Assay [2] shares this test system. Described as above. The class given is cell-based. As to the method:
All experiments were performed on human umbilical vein endothelial cells (HUVEC, from Cascade Biology). HUVEC were grown in M199 medium with endothelial cell growth supplement, heparin and 15% fetal bovine serum or human serum. Cells were used at passage 2 to 4.
(§1) HUVEC were incubated with human C-reactive protein at the concentration indicated for 24 hours. Cells were detached by incubation with 10 mmol/L EDTA in PBS (without trypsin), washed with PBS buffer and suspended in PBS with 1% FBS and 0.1% sodium azide. Cell were then stained with R-Phycoerythrin labeled monoclonal antibodies (Pharmingen) against the adhesion molecules VCAM-1 (CD106) or ICAM-1 (CD54) or with Phycoerythrin labeled isotype IgG as control. For detection of E-selectin, HUVEC were incubated for 6 hours with C-reactive protein and then stained with a FITC labeled monoclonal antibody against E-selectin (RandD Systems) or the appropriate isotype control (Pasceri et al., 2000). R-Phycoerythrin labeled monoclonal antibodies (Pharmingen) against the C-reactive protein receptors FCγRI and FCγRII (Marnell et al., 1995; Bharadwaj et al., 1999) were also used.
(§2) The staining procedure was performed on ice for 30 minutes, followed by washing. The fluorescence intensity of 9000 cells for each sample was quantified by a FACS CaliburTM analyser (Becton Dickinson). All experiments were performed in triplicate.

Assay [3] has as its system HUVEC. Put plainly: RANTES secretion by HUVEC, sandwich ELISA. The class given is cell-based, human. As to the method:
(§3) Experiments were performed in HUVEC, cultured in 12-well plates in basic endothelial cell medium CS-C, with 10 mM HEPES and 15% human serum (Sigma). Culture supernatants were collected 6-24 hours after stimulation with either IL-1β or CRP, at the concentration indicated. Secretion of MCP-1 and RANTES were assessed by sandwich ELISA (Colorimetric Quantikine, by R and D Systems). All determinations were performed in duplicate. Data were expressed as mean±SD of 5-6 separate experiments. Cell viability was assessed by staining with trypan blue.

In assay [4] the test system is HUVEC. Put plainly: MCP-1 secretion by HUVEC, sandwich ELISA. The class given is cell-based, human. As to the method: as §3
Assay [5] concerns human umbilical vein endothelial cells (HUVEC). Briefly: Adhesion molecule expression in HUVEC by FACS, serum-free medium. The class given is cell-based. As to the method:
as §1, with “protein similar to Example 2 except in” for “protein at”, “the absence of serum.” for “the concentration indicated for 24 hours.”, “with” for “with 1% FBS and”
as §2

Where [6] appears, read: CRP 100 μg/mL + test substance 100 μmol/L.
Where [7] appears, read: CRP 100 μg/mL + test substance 1 mmol/L.
Setting [8] is: Homo sapiens, HUVEC, CRP 100 μg/mL + test substance 100 μmol/L.
Where [9] appears, read: CRP 100 μg/mL + test substance 10 μmol/L.
Setting [10] is: CRP 100 μg/mL + test substance 20 μmol/L.
The mark [11] stands for this setting: CRP 100 μg/mL + test substance 50 μmol/L.
[12] abbreviates: CRP 100 μg/mL + test substance 200 μmol/L.
The mark [13] stands for this setting: C-reactive protein 10 μg/mL, 24-hour incubation, HUVEC with human serum.

“Also recorded” adds a separate entry of the source.

The record followed here is US6764826B2, “Inhibitors of C-reactive protein induced inflammation” (Board of Regents, The University of Texas System, priority 2000, dated 2004).

For the molecule `CC(=O)Oc1ccccc1C(=O)O` [aspirin], in the assay with MCP-1 Induction by CRP (setting [6]), the “-Fold Increase in MCP-1 conc.” value was 6.7 ± 1.9 -Fold and the MCP-1 conc. was 14.6 ± 6.7 ng/mL. In the assay on MCP-1 Induction by CRP (setting [7]), the “-Fold Increase in MCP-1 conc.” value is 6.4 ± 1.8 -Fold and the MCP-1 conc. was 13.7 ± 6.7 ng/mL. Also, in the assay on MCP-1 Induction by CRP (setting [8]), the MCP-1 secretion, % of maximal CRP-induced response at 100 µM was found to be 104%. In addition, the MCP-1 secretion, % of maximal CRP-induced response at 1000 µM in the assay with MCP-1 Induction by CRP (Homo sapiens, HUVEC, CRP 100 μg/mL + test substance 1 mmol/L) worked out at 102%. Besides, the “effect on the effects of C-reactive protein (MCP-1 induction, in words)” value in the assay with MCP-1 Induction by CRP (high concentration, up to 1 mM) is recorded as “did not inhibit”.
Consider `Cc1cccc(Nc2cc(Cl)nc(SCC(=O)O)n2)c1C` [Wy 14649], for which, in the assay on MCP-1 Induction by CRP (setting [9]), the “% of Maximal Response” value was found to be 101%, the “-Fold Increase in MCP-1 conc.” value is listed as 6.4 ± 2.1 -Fold and the MCP-1 conc. stood at 13.9 ± 6.0 ng/mL. In the assay on MCP-1 Induction by CRP (setting [6]), the “% of Maximal Response” value turned out to be 30%, the “-Fold Increase in MCP-1 conc.” value is reported as 1.9 ± 0.9 -Fold and the MCP-1 conc. worked out at 4.2 ± 2.2 ng/mL. For the same molecule, the “effect on induction of MCP-1 by CRP (in words)” value with MCP-1 Induction by CRP was “no effect”. In the assay with MCP-1 Induction by CRP (test substance 100 μM), the “effect on secretion of MCP-1 induced by CRP (in words)” value is “completely inhibited”.
As for `Cc1c(C)c2c(c(C)c1O)CCC(C)(COc1ccc(CC3SC(=O)NC3=O)cc1)O2` (stereo not shown) [troglitazone], in the assay with MCP-1 Induction by CRP (setting [10]), the “-Fold Increase in MCP-1 conc.” value is 5.2 ± 1.7 -Fold and the MCP-1 conc. stood at 11.4 ± 5.2 ng/mL. Moreover, in the assay with MCP-1 Induction by CRP (Homo sapiens, HUVEC, CRP 100 μg/mL + test substance 20 μmol/L), the MCP-1 secretion, % of maximal CRP-induced response at 20 µM was determined as 83%.
Consider `CC1(COc2ccc(CC3SC(=O)NC3=O)cc2)CCCCC1` (stereo not shown) [ciglitazone], for which the entries for the “-Fold Increase in MCP-1 conc.” value in the assay on MCP-1 Induction by CRP (setting [11]), in the assay with MCP-1 Induction by CRP (setting [6]) and in the assay with MCP-1 Induction by CRP (setting [12]) were 4.8 ± 1.5 -Fold, 4.1 ± 1.0 -Fold and 2.7 ± 0.8 -Fold, respectively. Besides, the MCP-1 conc. turned out to be 10.2 ± 4.6 ng/mL in the assay with MCP-1 Induction by CRP (setting [11]), 8.7 ± 3.4 ng/mL with MCP-1 Induction by CRP (setting [6]) and 5.9 ± 2.5 ng/mL in the assay with MCP-1 Induction by CRP (setting [12]). Besides, the MCP-1 secretion, % of maximal CRP-induced response at 50 µM in the assay on MCP-1 Induction by CRP (Homo sapiens, HUVEC, CRP 100 μg/mL + test substance 50 μmol/L) came to 74%. In addition, the MCP-1 secretion, % of maximal CRP-induced response at 100 µM in the assay on MCP-1 Induction by CRP (setting [8]) came out at 65%. Besides, the MCP-1 secretion, % of maximal CRP-induced response at 200 µM in the assay on MCP-1 Induction by CRP (Homo sapiens, HUVEC, CRP 100 μg/mL + test substance 200 μmol/L) stood at 42%.
Consider “interleukin-1: Interleukin-1 provided by RandD systems; a well known activator of endothelial cells”, for which the E-selectin expression entry in assay [1] is given as “no increase”. The “induction of adhesion molecules expression compared with C-reactive protein 10 μg/mL” value in assay [2] (interleukin-1 10 ng/mL, same time-intervals (24-hour; 6-hour for E-selectin), HUVEC with human serum) is given as “similar”. Besides, in the assay with HUVEC [3] (Interleukin-1β 10 ng/mL), the RANTES expression result is “did not induce”. The “MCP-1 response in absence of serum” value in the assay on HUVEC [4] (IL-1β, serum-free medium) is reported as “absence of serum did not change the response”. This molecule gave an MCP-1 concentration in the assay on HUVEC [4] (Interleukin-1β 10 ng/mL, 15% human serum) of 8.6 ± 3.7 ng/mL. In assay [5] (interleukin-1, serum-free medium), the “expression of adhesion molecules” value was “able to induce adhesion molecules”.
`CC(C)OC(=O)C(C)(C)Oc1ccc(C(=O)c2ccc(Cl)cc2)cc1` [fenofibrate]: in the assay with MCP-1 Induction by CRP (setting [6]), the “-Fold Increase in MCP-1 conc.” value is given as 0.9 ± 0.2 -Fold and the MCP-1 conc. is 2.1 ± 0.6 ng/mL. Moreover, the MCP-1 secretion, % of maximal CRP-induced response at 100 µM with MCP-1 Induction by CRP (setting [8]) came to 15%.
Turning to `CCCCC/C=C/C=C1/C(=O)C=C[C@@H]1C/C=C\CCCC(=O)O` [15d-PGJ2, 15-deoxy-^Δ12,14-prostaglandin J2], in the assay with MCP-1 Induction by CRP (setting [9]), the “% of Maximal Response” value stood at 24%, the “-Fold Increase in MCP-1 conc.” value is listed as 1.5 ± 0.6 -Fold and the MCP-1 conc. is given as 3.4 ± 1.6 ng/mL. In the assay with MCP-1 Induction by CRP, the “effect on induction of MCP-1 by CRP (in words)” value is “almost completely abolished”.

B1: CRP: Recombinant human C-reactive protein purchased from Biochem; acute phase reactant protein (protein, UniProt P02741 19-224, looked up)
C-reactive protein: QTDMSRKAFVFPKESDTSYVSLKAPLTKPLKAFTVCLHFYTELSSTRGYSIFSYATKRQDNEILIFWSKDIGYSFTVGGSEILFEVPEVTVAPVHICTSWESASGIVEFWVDGKPRVRKSLKKGYTVGAEASIILGQEQDSFGGNFEGSQSLVGDIGNVNMWDFVLSPDEINTIYLGGPFSPNVLNWRALKYEVQGEVFTKPQLWP
In the case of B1, the E-selectin expression entry in assay [1] was “no increase”. For the same molecule, the E-selectin expression result in assay [2] (C-reactive protein 10 μg/mL, 6-hour incubation, HUVEC with human serum) is recorded as “significant increase”. In assay [2] (setting [13]), the ICAM-1 expression result is “large increase” and the VCAM-1 expression result was “significant increase”. Moreover, the VCAM-1 expression result in assay [2] (C-reactive protein 10 μg/mL, 24-hour incubation, HUVEC with human serum, listed as recombinant C-reactive protein) is “large increase”. In addition, the “further increase in adhesion molecules expression on increase of concentration” value in assay [2] (C-reactive protein up to 100 μg/mL, compared with 10 μg/mL, 4th passage cells, 15% human serum) is given as “only a modest further increase”. In assay [2] (C-reactive protein up to 200 μg/mL, compared with 10 μg/mL), the “further adhesion molecules induction on increase of concentration” value is “only a modest further adhesion molecules induction”. Moreover, the “C-reactive protein concentration at which adhesion molecule expression is nearly maximum” value in assay [2] (dose response, HUVEC with 15% human serum) worked out at 10 µg/mL. Besides, the “Secretion of RANTES” value in the assay with HUVEC [3] (C-reactive protein 100 μg/mL, 15% human serum) is reported as “not increased”. Further, the “CRP concentration already giving significant induction of MCP-1” value in the assay on HUVEC [4] (24-hour incubation, 15% human serum) was 5 µg/mL. Further, in the assay with HUVEC [4] (CRP 10 μg/mL, 24-hour incubation, 15% human serum, baseline 1.1±0.5), the MCP-1 concentration amounted to 2.4 ± 0.9 ng/mL. In the assay on HUVEC [4] (CRP 100 μg/mL (peak), 24-hour incubation, 15% human serum), the MCP-1 concentration was determined as 9.7 ± 4.8 ng/mL. In addition, the MCP-1 concentrations result in the assay on HUVEC [4] (CRP 100 μg/mL, 24-hour, serum-free medium) is “did not induce a significant increase”. Also, the “fold-increase of MCP-1 secretion” value in the assay with HUVEC [4] (CRP 100 μg/mL, 24-hour, versus human albumin 100 μg/mL, 15% human serum) stood at 7 fold-increase. The “expression of adhesion molecules (ICAM-1, VCAM-1, E-selectin)” value in assay [5] (C-reactive protein 100 μg/mL, 24-hour (6-hour for E-selectin), serum-free medium) is recorded as “could not induce; also recorded: did not induce”. For the same molecule, in the assay with MCP-1 Induction by CRP (CRP 100 μg/mL alone, 24 hours), the “% of Maximal Response” value turned out to be 100%, the “-Fold Increase in MCP-1 conc.” value is given as 6.3 ± 1.8 -Fold and the MCP-1 conc. amounted to 13.6 ± 5.4 ng/mL.
